Experimental data as given in patent publication US20200164005A1, “PHARMACEUTICAL COMPOSITIONS OF A BILE ACID DERIVATIVE AND MICROBIOME AND USES THEREOF” (Intercept Pharmaceuticals, Inc., priority 2017, published 2020).

System: gut microbiome species
Test: Shotgun metagenomics of stool: relative abundance of gut microbiome species after OCA treatment
Type: in vivo, human
Settings: for OCA Response: abundance change of the bacterial species, subjects treated with 10 mg of OCA
Experimental: Twenty-four eligible subjects were enrolled and randomized to 1 of 3 treatment groups (5 mg, 10 mg, or 25 mg) in a treatment ratio of 1:1:1. The study comprised single dose and multiple dose phases. The randomized dose administered in the single dose phase was the subject's dose level for the multiple dose phase. A single dose of OCA (5 mg, 10 mg, or 25 mg) was administered on Day 1. On Day 4, the multiple dose phase began at the same dose level (5 mg, 10 mg, or 25 mg), with subjects receiving OCA once daily for 14 days. The last dose was given to subjects on Day 17. Subjects remained at the inpatient trial site from Day 0 until the morning of Day 30, and returned to the study site for collection of a sample on Days 35, 37, 39, and 44.
Stool specimens for microbiota genome testing were collected up to 2 days prior to submitting them on Day 0, on Day 15, 16, or 17 prior to submitting them on the same day, and up to 2 days prior to submitting them on Day 37. One Day 1, pre-dose blood samples were collected, and serial blood samples were obtained from Day 1 to Day 3 following administration on Day 1 (see Table 1). Multiple dose phase started on Day 4 and lasted through Day 17, during which subjects received once daily doses of OCA (5 mg, 10 mg, or 25 mg) and pre-dose blood samples were drawn (see Table 1).
For microbiome analysis, stool samples were collected on day 0, day 15 or 16, and day 37. FGF19 and C4
The bacterial abundance on species level was generated from MetaPhlAn2 (Segata et al., Nat. Methods 9, 811 (2012)). 341 species were identified from the dataset.
The adaptors, human reads contamination, and low quality sequences were removed from the raw sequencing data using software kneaddata. Trimmomatic (Bolger et al., Bioinformatics 30, 2114 (2014)) was invoked by kneaddata for removing adaptor sequence, trimming low quality bases, and removing low quality reads. Bowtie (Langmead and Salzberg, Nat. Methods 9, 357 (2012)) was invoked by kneaddata for human reads detection. • Removing sequencing noise: For each sample, if the abundance of one species was smaller than 0.05% of the maximum abundance of all species in the sample, it was considered as noise, and the abundance of this species in the sample was set as 0. • Imputing missing value (i.e. Os): Because log 2 transformation was needed in further analysis, adjustment factor (e) was added to the abundance matrix, where e equals 50% of the minimum non-zero abundance value of all samples. • Removing low abundance species: A species was removed if the relative abundance was lower than 0.1% in >=95% of samples. 128 species was kept for further analysis.
• Species differential abundance analysis: The time effect of OCA treatment was studied on three OCA dose groups separately using Friedman rank test. The dose effect of OCA treatment was studied on three time point separately, and Kruskal-Wallis test was used. • Gene differential abundance analysis: For each of the most varying genes, repeated-measure ANOVA was performed to study the time effect and OCA dose effect on gene abundance change.
An open label, randomized, single dose and multiple dose trial to assess the pharmacokinetics of obeticholic acid (OCA) in 24 healthy male or female subjects aged 18 to 55 years receiving 5, 10 or 25 mg OCA was conducted. Stool specimens for microbiota genome testing were collected by subjects up to 2 days before Day 0 (T0), […] (T1), and Day 37 (T2). […]

CC[C@H]1[C@@H](O)[C@@H]2[C@H](CC[C@]3(C)[C@@H]([C@H](C)CCC(=O)O)CC[C@@H]23)[C@@]2(C)CC[C@@H](O)C[C@@H]12 [OCA, 3α,7α-dihydroxy-6α-ethyl-5β-cholan-24-oic acid] was tested, and the “time-dependent effect of OCA on Streptococcus thermophilus abundance in fecal microbiota” value (10 mg OCA group) was “greatest increase”, the “abundances of all Gram-negative bacteria following OCA treatment” value (10 mg OCA, Table 15) was “decreased” and the “numbers of Lactobacillus casei paracasei and Streptococcus thermophilus upon discontinuation of OCA” value (OCA 5 mg, 10 mg, 25 mg) was “decreased”. For the same compound, the “abundance of Lactobacillus casei paracasei and Streptococcus thermophilus in stool over time” value (OCA 5 mg, 10 mg, 25 mg, Friedman rank test, p<0.05) was “differentially abundant over time in all three OCA dosage groups”, the “OCA Response” value (Alistipes_putredinis) was “Decrease” and the “OCA Response” value (Lactococcus_lactis) was “Increase”. For the same compound, the “OCA Response” value (Subdoligranulum_unclassified) was “Equivocal”, the “low abundance gram positive organisms with the use of OCA” value (day 16) was “consistent increase” and the “OCA dose effect on abundance of Bacteroides uniformis and Streptococcus thermophilus” value (day 16 and day 37, Kruskal-Wallis test, p<0.05) was “significantly different among dose groups”. The “low abundance gram positive organisms after OCA was discontinued” value (day 37) was “decreased to baseline” and the “abundances of Gram-positive bacterial genera following OCA treatment” value (with two exceptions, 10 mg OCA, Table 15) was “increased abundances”.
